Source: patent US11807835B2, “Detergent compositions containing a stabilized enzyme by phosphonates” (ECOLAB USA INC., priority 2016, dated 2023)

Tests used:
Assay type in all cases: biochemical
protease = test: Protease activity retention in detergent use solution (4000 ppm, 5 GPG water; peptidyl substrate, glycine buffer pH 9.0); conditions: for Relative Protease Enzyme Activity: use solution at 120° F.
Summary of the method: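 Detergent use solutions at 4000 ppm in 5 GPG water were held at 120° F with stirring and sampled up to 4 h, with aliquots flash-frozen. Activity was read on a peptidyl substrate in glycine buffer pH 9.0 by absorbance against a calibration curve. Retention is % activity relative to the t=0 sample.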

amylase = test: Amylase activity retention in detergent use solution (4000 ppm, 5 GPG water; ethylidene substrate EPS, HEPES buffer pH 8.0)
Summary of the method: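 Detergent use solution at 4000 ppm in 5 GPG water held at 120° F.; aliquots taken up to 4 h, flash-frozen, then assayed with p-nitrophenyl valerate in TRIS pH 8.0 (lipase) or EPS substrate in HEPES pH 8.0 (amylase). Retention given as % activity relative to t=0.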

[1] = test system: enzyme (protease, amylase, lipase); test: Overall effects of phosphonates on enzyme activity (Table 3); conditions: overall effect of the phosphonate on enzyme activity in the detergent use solution
Summary of the method: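 Protease, amylase and lipase activity in detergent use solutions with varied phosphonate levels, 4000 ppm in 5 GPG water at 120° F., sampled up to 4 h and frozen at −80° C. before assay. Activity given as % retention relative to t=0 (100%).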

## Diglycolamine phosphonate [DGAP]
protease; All Ash formula, phosphonate 0.3 wt-%, time 0 min
  Relative Protease Enzyme Activity: 100.00%
protease; All Ash formula, phosphonate 0.3 wt-%, time 5 min
  Relative Protease Enzyme Activity: 81.79%
protease; All Ash formula, phosphonate 0.3 wt-%, time 10 min
  Relative Protease Enzyme Activity: 75.39%
protease; All Ash formula, phosphonate 0.3 wt-%, time 20 min
  Relative Protease Enzyme Activity: 59.47%
protease; All Ash formula, phosphonate 0.3 wt-%, time 40 min
  Relative Protease Enzyme Activity: 39.98%
protease; All Ash formula, phosphonate 0.3 wt-%, time 60 min
  Relative Protease Enzyme Activity: 27.49%
protease; All Ash formula, phosphonate 0.3 wt-%, time 90 min
  Relative Protease Enzyme Activity: 18.95%
protease; All Ash formula, phosphonate 0.3 wt-%, time 120 min
  Relative Protease Enzyme Activity: 12.48%
protease; All Ash formula, phosphonate 0.3 wt-%, time 150 min
  Relative Protease Enzyme Activity: 10.56%
protease; All Ash formula, phosphonate 0.3 wt-%, time 180 min
  Relative Protease Enzyme Activity: 9.69%
protease; All Ash formula, phosphonate 0.3 wt-%, time 210 min
  Relative Protease Enzyme Activity: 7.02%
protease; All Ash formula, phosphonate 0.3 wt-%, time 240 min
  Relative Protease Enzyme Activity: 6.34%
protease; all ash formula, versus same composition with PBTC or HEDP without amine(s), FIG. 2D
  protease stability in all ash formula: more stable
protease; base formula, phosphonate 0.3 wt-%, lower half of Table 4A, time 5
  Relative Protease Enzyme Activity: 98.30%
protease; base formula, phosphonate 0.3 wt-%, lower half of Table 4A, time 20
  Relative Protease Enzyme Activity: 91.75%
protease; base formula, phosphonate 0.3 wt-%, lower half of Table 4A, time 90
  Relative Protease Enzyme Activity: 84.87%
protease; base formula, phosphonate 0.3 wt-%, lower half of Table 4A, time 120
  Relative Protease Enzyme Activity: 82.96%
protease; base formula, phosphonate 0.3 wt-%, lower half of Table 4A, time 150, unit not given
  Relative Protease Enzyme Activity: 82.44%
protease; base formula, phosphonate 0.3 wt-%, lower half of Table 4A, time 210
  Relative Protease Enzyme Activity: 76.14%
protease; base formula, phosphonate 0.3 wt-%, lower half of Table 4A, time '0'
  Relative Protease Enzyme Activity: 100.00%
protease; base formula, phosphonate 0.3 wt-%, lower half of Table 4A, time '40'
  Relative Protease Enzyme Activity: 89.16%
protease; base formula, phosphonate 0.3 wt-%, lower half of Table 4A, time 'Blank'
  Relative Protease Enzyme Activity: 100.00%
protease; base formula, phosphonate 0.3 wt-%, lower half of Table 4A, time row printed '10'
  Relative Protease Enzyme Activity: 92.44%
protease; base formula, phosphonate 0.3 wt-%, lower half of Table 4A, time row printed '60'
  Relative Protease Enzyme Activity: 79.16%
protease; base formula, phosphonate 0.3 wt-%, lower half of Table 4A, time row printed '180'
  Relative Protease Enzyme Activity: 75.52%
protease; base formula, phosphonate 0.6 wt-%, time 0 min
  Relative Protease Enzyme Activity: 100.00%
protease; base formula, phosphonate 0.6 wt-%, time 5 min
  Relative Protease Enzyme Activity: 105.28%
protease; base formula, phosphonate 0.6 wt-%, time 10 min
  Relative Protease Enzyme Activity: 100.03%
protease; base formula, phosphonate 0.6 wt-%, time 20 min
  Relative Protease Enzyme Activity: 101.24%
protease; base formula, phosphonate 0.6 wt-%, time 40 min
  Relative Protease Enzyme Activity: 100.88%
protease; base formula, phosphonate 0.6 wt-%, time 90 min
  Relative Protease Enzyme Activity: 98.76%
protease; base formula, phosphonate 0.6 wt-%, time 120 min
  Relative Protease Enzyme Activity: 93.04%
protease; base formula, phosphonate 0.6 wt-%, time 150 min
  Relative Protease Enzyme Activity: 88.27%
protease; base formula, phosphonate 0.6 wt-%, time 180 min
  Relative Protease Enzyme Activity: 86.23%
protease; base formula, phosphonate 0.6 wt-%, time 210 min
  Relative Protease Enzyme Activity: 88.24%
protease; base formula, phosphonate 0.6 wt-%, time 240 min
  Relative Protease Enzyme Activity: 89.57%
protease; base formula, phosphonate at 0.1% elemental phosphorus, time 0 min
  Relative Protease Enzyme Activity: 100.00%
protease; base formula, phosphonate at 0.1% elemental phosphorus, time 5 min
  Relative Protease Enzyme Activity: 98.29%
protease; base formula, phosphonate at 0.1% elemental phosphorus, time 10 min
  Relative Protease Enzyme Activity: 103.47%
protease; base formula, phosphonate at 0.1% elemental phosphorus, time 20 min
  Relative Protease Enzyme Activity: 101.47%
protease; base formula, phosphonate at 0.1% elemental phosphorus, time 40 min
  Relative Protease Enzyme Activity: 88.60%
protease; base formula, phosphonate at 0.1% elemental phosphorus, time 60 min
  Relative Protease Enzyme Activity: 86.17%
protease; base formula, phosphonate at 0.1% elemental phosphorus, time 90 min
  Relative Protease Enzyme Activity: 85.84%
protease; base formula, phosphonate at 0.1% elemental phosphorus, time 120 min
  Relative Protease Enzyme Activity: 83.06%
protease; base formula, phosphonate at 0.1% elemental phosphorus, time 150 min
  Relative Protease Enzyme Activity: 81.53%
protease; base formula, phosphonate at 0.1% elemental phosphorus, time 180 min
  Relative Protease Enzyme Activity: 76.41%
protease; base formula, phosphonate at 0.1% elemental phosphorus, time 210 min
  Relative Protease Enzyme Activity: 74.23%
protease; base formula, phosphonate at 0.1% elemental phosphorus, time 240 min
  Relative Protease Enzyme Activity: 72.01%
amylase; All Ash formula, phosphonate 0.3 wt-%, use solution at 120° F., time 0 min
  Relative Amylase Enzyme Activity: 100.00%
amylase; All Ash formula, phosphonate 0.3 wt-%, use solution at 120° F., time 5 min
  Relative Amylase Enzyme Activity: 89.94%
amylase; All Ash formula, phosphonate 0.3 wt-%, use solution at 120° F., time 10 min
  Relative Amylase Enzyme Activity: 87.50%
amylase; All Ash formula, phosphonate 0.3 wt-%, use solution at 120° F., time 20 min
  Relative Amylase Enzyme Activity: 88.87%
amylase; All Ash formula, phosphonate 0.3 wt-%, use solution at 120° F., time 40 min
  Relative Amylase Enzyme Activity: 86.87%
amylase; All Ash formula, phosphonate 0.3 wt-%, use solution at 120° F., time 60 min
  Relative Amylase Enzyme Activity: 82.06%
amylase; All Ash formula, phosphonate 0.3 wt-%, use solution at 120° F., time 90 min
  Relative Amylase Enzyme Activity: 81.79%
amylase; All Ash formula, phosphonate 0.3 wt-%, use solution at 120° F., time 120 min
  Relative Amylase Enzyme Activity: 75.74%
amylase; All Ash formula, phosphonate 0.3 wt-%, use solution at 120° F., time 150 min
  Relative Amylase Enzyme Activity: 79.71%
amylase; All Ash formula, phosphonate 0.3 wt-%, use solution at 120° F., time 180 min
  Relative Amylase Enzyme Activity: 65.75%
amylase; All Ash formula, phosphonate 0.3 wt-%, use solution at 120° F., time 210 min
  Relative Amylase Enzyme Activity: 71.27%
amylase; All Ash formula, phosphonate 0.3 wt-%, use solution at 120° F., time 240 min
  Relative Amylase Enzyme Activity: 70.12%
amylase; all ash formula, versus same composition with PBTC or HEDP without amine(s), FIG. 4D
  amylase stability in all ash formula: more stable
amylase; base formula, phosphonate 0.3 wt-%, use solution at 120° F., time 0 min
  Relative Amylase Enzyme Activity: 39.01%
amylase; base formula, phosphonate 0.3 wt-%, use solution at 120° F., time 5 min
  Relative Amylase Enzyme Activity: 100.00%
amylase; base formula, phosphonate 0.3 wt-%, use solution at 120° F., time 10 min
  Relative Amylase Enzyme Activity: 113.48%
amylase; base formula, phosphonate 0.3 wt-%, use solution at 120° F., time 20 min
  Relative Amylase Enzyme Activity: 112.07%
amylase; base formula, phosphonate 0.3 wt-%, use solution at 120° F., time 40 min
  Relative Amylase Enzyme Activity: 110.36%
amylase; base formula, phosphonate 0.3 wt-%, use solution at 120° F., time 60 min
  Relative Amylase Enzyme Activity: 109.99%
amylase; base formula, phosphonate 0.3 wt-%, use solution at 120° F., time 90 min
  Relative Amylase Enzyme Activity: 118.04%
amylase; base formula, phosphonate 0.3 wt-%, use solution at 120° F., time 120 min
  Relative Amylase Enzyme Activity: 110.39%
amylase; base formula, phosphonate 0.3 wt-%, use solution at 120° F., time 150 min
  Relative Amylase Enzyme Activity: 111.92%
amylase; base formula, phosphonate 0.3 wt-%, use solution at 120° F., time 180 min
  Relative Amylase Enzyme Activity: 112.24%
amylase; base formula, phosphonate 0.3 wt-%, use solution at 120° F., time 210 min
  Relative Amylase Enzyme Activity: 115.96%
amylase; base formula, phosphonate 0.3 wt-%, use solution at 120° F., time 240 min
  Relative Amylase Enzyme Activity: 110.74%
amylase; base formula, phosphonate 0.6 wt-%, use solution at 120º F., time 0 min
  Relative Amylase Enzyme Activity: 100.00%
amylase; base formula, phosphonate 0.6 wt-%, use solution at 120º F., time 5 min
  Relative Amylase Enzyme Activity: 102.43%
amylase; base formula, phosphonate 0.6 wt-%, use solution at 120º F., time 10 min
  Relative Amylase Enzyme Activity: 95.89%
amylase; base formula, phosphonate 0.6 wt-%, use solution at 120º F., time 20 min
  Relative Amylase Enzyme Activity: 99.40%
amylase; base formula, phosphonate 0.6 wt-%, use solution at 120º F., time 40 min
  Relative Amylase Enzyme Activity: 97.26%
amylase; base formula, phosphonate 0.6 wt-%, use solution at 120º F., time 60 min
  Relative Amylase Enzyme Activity: 100.23%
amylase; base formula, phosphonate 0.6 wt-%, use solution at 120º F., time 90 min
  Relative Amylase Enzyme Activity: 95.37%
amylase; base formula, phosphonate 0.6 wt-%, use solution at 120º F., time 120 min
  Relative Amylase Enzyme Activity: 102.17%
amylase; base formula, phosphonate 0.6 wt-%, use solution at 120º F., time 150 min
  Relative Amylase Enzyme Activity: 102.37%
amylase; base formula, phosphonate 0.6 wt-%, use solution at 120º F., time 180 min
  Relative Amylase Enzyme Activity: 101.89%
amylase; base formula, phosphonate 0.6 wt-%, use solution at 120º F., time 210 min
  Relative Amylase Enzyme Activity: 102.69%
amylase; base formula, phosphonate 0.6 wt-%, use solution at 120º F., time 240 min
  Relative Amylase Enzyme Activity: 105.89%
amylase; base formula, phosphonate at 0.1% elemental phosphorus level, use solution at 120º F., time 0 min
  Relative Amylase Enzyme Activity: 100.00%
amylase; base formula, phosphonate at 0.1% elemental phosphorus level, use solution at 120º F., time 5 min
  Relative Amylase Enzyme Activity: 98.51%
amylase; base formula, phosphonate at 0.1% elemental phosphorus level, use solution at 120º F., time 10 min
  Relative Amylase Enzyme Activity: 108.49%
amylase; base formula, phosphonate at 0.1% elemental phosphorus level, use solution at 120º F., time 40 min
  Relative Amylase Enzyme Activity: 97.68%
amylase; base formula, phosphonate at 0.1% elemental phosphorus level, use solution at 120º F., time 60 min
  Relative Amylase Enzyme Activity: 97.62%
amylase; base formula, phosphonate at 0.1% elemental phosphorus level, use solution at 120º F., time 90 min
  Relative Amylase Enzyme Activity: 99.36%
amylase; base formula, phosphonate at 0.1% elemental phosphorus level, use solution at 120º F., time 120 min
  Relative Amylase Enzyme Activity: 92.67%
amylase; base formula, phosphonate at 0.1% elemental phosphorus level, use solution at 120º F., time 150 min
  Relative Amylase Enzyme Activity: 98.24%
amylase; base formula, phosphonate at 0.1% elemental phosphorus level, use solution at 120º F., time 180 min
  Relative Amylase Enzyme Activity: 93.89%
amylase; base formula, phosphonate at 0.1% elemental phosphorus level, use solution at 120º F., time 210 min
  Relative Amylase Enzyme Activity: 107.33%
amylase; base formula, phosphonate at 0.1% elemental phosphorus level, use solution at 120º F., time 240 min
  Relative Amylase Enzyme Activity: 103.75%
[1]
  Stability (effects on enzyme activity): Yes
